Reference: paper PMC5441580, “GPR40 partial agonist MK-2305 lower fasting glucose in the Goto Kakizaki rat via suppression of endogenous glucose production” (PLoS ONE, 2017)
Several values for one entry are separate records, joined by “and”; a condition that tells them apart may be missing. Equal values may be shown once.

How the values were obtained:
GK rats [1] = assay: GK rat chronic efficacy, compound in feed for 20 days; format: in vivo; settings: for Morning (fed) Blood Glucose: MK-2305 10 mpk in feed; for decrease in fed glucose vs. vehicle: p < 0.05; for Fasted blood glucose: second block of the table (day 14 per title), individual animals
Protocol: At the start of the study, fed glucose was measured at 8 A.M., and animals were selected and sorted into treatment groups based on ambient glucose (n = 10/male GK group, n = 6/male WKY control group). […] Fed blood glucose, food intake, and body weights were determined on days 0, 1, 3, 7, and 14 of study at 8 A.M. On days 7 and 14, food was removed for 5 h and plasma glucose was measured. Percent inhibitions were calculated as the percent reduction of blood glucose from the average value for vehicle controls. On day 14, blood was collected from the tail vein (20 μl) after the morning glucose measurement and after 5 h fast from a subset of n = 3 rats per treatment group to determine the ambient and fasted exposure of the compounds in circulation. The blood was stored at 4°C in 0.1 M sodium monocitrate for subsequent analysis. Animals were then re-fed their respective diet treatments. On day 20 of treatment at 8 A.M., blood glucose was measured and then animals were euthanized via CO2 asphyxiation. Blood and liver tissue were sampled, processed, and stored at -80°C until analysis.
Plasma was analyzed for triglycerides, NEFA, and HbA1C using a P Modular Roche Clinical Chemistry analyzer. Liver triglycerides were extracted as described by Bligh and Dyer, and were measured using the Infinity triglyceride assay kit (Thermo Scientific, Rockford, IL). Plasma insulin levels were measured via EIA (Mesoscale Discovery ELISA Kit, Gaithersburg MD).

GK rats [2] = assay: OGTT with insulin co-measurement on Day 13 of chronic treatment, parallel set of animals; format: in vivo, rat; parameters: unit not given here; settings: Time 10, individual animals
GK rats [3] = assay: endogenous glucose production in vivo, 2H/13C dual tracer, acute treatment, GK rats; parameters: species or system rat
Protocol: To evaluate whether MK-2305 treatment produced an effect on EGP in vivo, a ^2H/^13C dual tracer approach was used to calculate EGP and its contributing sources. On the day of the study, GK rats were bled via tail snip, and blood glucose was measured via glucometer. Ambient glucose was measured at 8 A.M. and used to sort animals into treatment groups (n = 8 per group). 0.9% NaCl salinated D2O (Sigma-Aldrich, St. Louis, MO) was administered to all animals via IP injection at dose volume of 20 ml/kg. Animals were then placed in clean cages and food was removed. After a 5 hour fast, blood glucose was measured and animals were dosed PO with MK-2305 at 10 mg/kg (5 ml/kg) or vehicle (0.5% methylcellulose) immediately followed by 50 mg/kg [U-^13C] glucose (Sigma-Aldrich) IP at 5 ml/kg. Blood was collected via tail snip at time points from 60–150 min post treatment to measure blood glucose as well as endogenous (^12C-glucose) and exogenous (^13C-glucose) via GCMS. Following the last tail blood collection, rats were anesthetized with isoflurane and cardiac blood was collected into K2EDTA tubes (Becton, Dickinson and Co., Franklin Lakes, NJ).
The serially collected blood samples were analyzed for ^13C-glucose enrichment using GC-MS analysis. The % ^13C glucose enrichments were then combined with the total glucose readings to calculate the concentration of ^13C-glucose, and these values were modeled with a two-compartment model of whole body glucose metabolism to calculate the average EGP for the period from 0–150 minutes.
Terminal blood samples were analyzed for relative ^2H enrichment in plasma glucose using the monoacetone glucose method. Briefly, samples were extracted with 70% perchloric acid and centrifuged at 25,000 rcf for 10 min at 4°C. The supernatant was collected and the pH was adjusted to 6–8 using KOH. The samples were then lyophilized overnight. To convert plasma glucose to monoacetone glucose (MAG), acetone and concentrated sulfuric acid were added to the lyophilized samples and stirred for 4 hours at room temperature. Water was then added and the pH adjusted to 2.0 with 3M Na2CO3. Samples were stirred moderately for 18 hours at room temperature, the pH was adjusted to 7 with 3M Na2CO3, and the samples were completely dried by speed vacuum concentration. The resulting MAG samples were then extracted in hot ethyl acetate, dried overnight under a stream of N2 gas, purified using Discovery DSC-18 SPE columns (6 ml, 1 g bed weight), and freeze dried. Purified MAG samples were solubilized in 180 μl 90% acetonitrile for ^2H NMR analysis which was performed using the lock channel of a 950 MHz Bruker NMR spectrometer (David H Murdock Research Institute, Kannapolis, NC). Acquisition parameters were as follows: 90° pulse, D1 = 1 s, ^1H broadband decoupling, NS = 3600 averages, acquisition time ~ 1 hr. The ^2H NMR spectra of the MAG samples were then analyzed using in–house developed Matlab (The Mathworks Inc, Natick, MA) to model the NMR peaks with a Lorentzian line shape, and the results were used to calculate integrals for each of the seven NMR resonances in the MAG spectrum. Peaks 2, 5, and 6s were then used to calculate the relative sources of EGP (i.e. gluconeogenesis from TCA cycle substrates, gluconeogenesis from triose phosphates, and glycogenolysis) and these values were combined with the total EGP measurement to calculate absolute fluxes of glucose production.

[4] = acute treatment, 10 mg/kg, individual animals

Structure (SMILES): O=C1NC(=O)C(C2CCOc3cc(Oc4ccc(C(F)(F)F)cc4Cl)ccc32)S1 (stereo not shown) [MK-2305]
- Morning (fed) Blood Glucose (GK rats [1]; Day 7, individual GK rats, 10 mg/kg): 150 mg/dL and 185 mg/dL and 138 mg/dL and 158 mg/dL and 179 mg/dL and 152 mg/dL and 224 mg/dL and 161 mg/dL
- Morning (fed) Blood Glucose (GK rats [1]; Day 14, individual GK rats, 10 mg/kg): 146 mg/dL and 143 mg/dL and 176 mg/dL and 141 mg/dL and 140 mg/dL and 169 mg/dL and 230 mg/dL
- Morning (fed) Blood Glucose (GK rats [1]; Day 20, individual GK rats, 10 mg/kg): 146 mg/dL and 140 mg/dL and 150 mg/dL and 149 mg/dL and 138 mg/dL and 145 mg/dL and 163 mg/dL and 120 mg/dL
- decrease in fed glucose vs. vehicle (GK rats [1]; day 3, 10 mg/kg in feed, GK rats): 22%
- decrease in fed glucose vs. vehicle (GK rats [1]; day 3, 30 mg/kg in feed, GK rats): 27%
- reduction in fasting blood glucose vs. vehicle (GK rats [1]; day 7, 5 hr fast, 10 mg/kg in feed, GK rats): 19%
- reduction in fasting blood glucose vs. vehicle (GK rats [1]; day 7, 5 hr fast, 30 mg/kg in feed, GK rats): 19%
- reduction in fasting blood glucose vs. vehicle (GK rats [1]; day 14, 5 hr fast, 10 mg/kg in feed, GK rats): 26%
- reduction in fasting blood glucose vs. vehicle (GK rats [1]; day 14, 5 hr fast, 30 mg/kg in feed, GK rats): 30%
- effect on circulating HbA1C levels (GK rats [1]; day 20, GK rats, all treatment groups): significantly reduced
- effect on liver triglyceride levels (GK rats [1]; day 20, GK rats, vs. vehicle controls): no effect
- effect on plasma non-esterified fatty acid (NEFA) levels (GK rats [1]; day 20, either dose (10, 30 mg/kg), GK rats): no effect
- effect on fasted plasma insulin (GK rats [1]; days 7 and 14, 5 hr fast, GK rats): no significant effects
- Fasted blood glucose (GK rats [1]; 10mpk, 10 mg/kg): 151 mg/dL and 95 mg/dL and 111 mg/dL and 128 mg/dL and 118 mg/dL and 120 mg/dL and 116 mg/dL and 138 mg/dL and 117 mg/dL
- Fasted blood glucose (GK rats [1]; 30mpk, 30 mg/kg): 112 mg/dl and 113 mg/dl and 108 mg/dl and 115 mg/dl (2×) and 126 mg/dl and 105 mg/dl and 123 mg/dl and 119 mg/dl
- Change in plasma insulin from baseline during OGTT (delta insulin) (GK rats [2]; Acute, 30 mpk, 30 mg/kg): 1.28 and 1.368 and 1.816 and 3.661 and 3.304 and 1.312 and 2.648 and 2.392 and 0.317 and 1.559
- Change in plasma insulin from baseline during OGTT (delta insulin) (GK rats [2]; Chronic, 30 mkd): 1.342 and 0.561 and 1.202 and 1.9 and 1.117 and 1.167 and 2.431 and 1.17 and 1.428 and 0.831
- Glucose Production, GNG Glycerol (GK rats [3]; [4]): 3.608 µmol/kg/min and 6.69 µmol/kg/min and 9.73 µmol/kg/min and 6.819 µmol/kg/min and 7.18 µmol/kg/min and 7.314 µmol/kg/min
- Glucose Production, GNG TCA (GK rats [3]; [4]): 22.6827 µmol/kg/min and 24.6101 µmol/kg/min and 42.0826 µmol/kg/min and 20.0832 µmol/kg/min and 26.1824 µmol/kg/min and 20.2011 µmol/kg/min
- Glucose Production, GNG Total (GK rats [3]; [4]): 26.2902 µmol/kg/min and 31.3005 µmol/kg/min and 51.8129 µmol/kg/min and 26.902 µmol/kg/min and 33.3626 µmol/kg/min and 27.5151 µmol/kg/min
- Glucose Production, Glycogenolysis (GK rats [3]; [4]): 12.8051 µmol/kg/min and 15.6084 µmol/kg/min and 16.1238 µmol/kg/min and 13.6282 µmol/kg/min and 9.977 µmol/kg/min and 16.0296 µmol/kg/min
- effect on EGP derived from glycogenolysis (GK rats [3]; acute, 10 mg/kg PO): did not acutely affect
- EGP from gluconeogenic substrates entering as triose phosphates (GK rats [3]; acute, 10 mg/kg PO, mean ± SEM, vehicle 8.82 ± 0.81, p < 0.05): 6.90 ± 0.80 µmol/kg/min
- EGP from gluconeogenic substrates entering at the TCA cycle (GK rats [3]; acute, 10 mg/kg PO, mean ± SEM, vehicle 43.2 ± 4.17, p < 0.01): 26.0 ± 3.36 µmol/kg/min
- total EGP (GK rats [3]; acute, 10 mg/kg PO, mean ± SEM, vehicle 52.0 ± 4.82, p < 0.05): 32.9 ± 3.95 µmol/kg/min
